Among the test systems are EKVX; U-251; A549; Malme-3M; DU-145; ACHN; TK-10; SNB-75; HOP-62; SW-620; T47D; OVCAR-5; MDA-N; COLO 205; HL-60; HOP-92; SNB-19; MDA-MB-435; KM12; HCC 2998.
What all share (experiment): NCI anticancer screen, dose series, 48 h

The values that follow come from ChEMBL document CHEMBL1201862, “PubChem BioAssay data set” (2004).

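Tested at 5 concentrations; 48 h exposure; 96-well plates; endpoints linearly interpolated, else capped at highest concentration. GI50 = concentration required for 50% inhibition of growth.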 Calls of active or inactive are those of the source. Rule as the data show it: active = GI50 up to about 1.1 µM and inactive = higher.

Take `NCc1nnn(Cc2ccccc2)c1N`: the GI50 in the experiment with EKVX, with U-251, with A549, with Malme-3M, in the experiment on DU-145 and in the experiment on ACHN was > 100 µM (inactive) throughout. For the same compound, the GI50 in the experiment with TK-10, with SNB-75, in the experiment on HOP-62, with SW-620, in the experiment on T47D and with OVCAR-5 was > 100 µM (inactive) throughout. Besides, the GI50 in the experiment with MDA-N, in the experiment on COLO 205, with HL-60, in the experiment on HOP-92, in the experiment on SNB-19 and with MDA-MB-435 was > 100 µM (inactive) each time. For the same compound, the GI50 in the experiment on KM12 is > 100 µM (inactive).
As for `CCN1C/C(=C\c2ccc(Cl)cc2)c2[nH]c(=O)c(C#N)c(-c3ccc(Cl)cc3)c2C1`, the GI50 in the experiment on EKVX, with U-251, in the experiment with A549, with Malme-3M, in the experiment on DU-145 and with ACHN was > 100 µM (inactive) in each case. For the same compound, the GI50 with HCC 2998, in the experiment with TK-10, in the experiment on HOP-62, in the experiment on SW-620, in the experiment with T47D and in the experiment with OVCAR-5 was > 100 µM (inactive) each time. Further, the GI50 with MDA-N, in the experiment with COLO 205, in the experiment on HL-60, in the experiment on HOP-92, in the experiment with SNB-19 and with MDA-MB-435 was > 100 µM (inactive) throughout. In the experiment with KM12, the GI50 was > 100 µM (inactive).
With `CC1(C)[C@@H]2CC[C@@]1(C)[C@H](O)[C@@H]2SCc1ccccc1`, the GI50 was 15.3 µM (inactive) with EKVX; 17.1 µM (inactive) in the experiment with U-251; 19 µM (inactive) in the experiment on A549; 19.9 µM (inactive) with DU-145; 11.7 µM (inactive) in the experiment with ACHN; 19.5 µM (inactive) in the experiment on HCC 2998. For the same compound, the GI50 in the experiment with TK-10 was 22.6 µM (inactive); with SNB-75, 27.4 µM (inactive); in the experiment with HOP-62, 17.9 µM (inactive); in the experiment with SW-620 it was 25.5 µM (inactive); in the experiment on T47D, 24 µM (inactive); in the experiment with OVCAR-5 it was 17 µM (inactive). Besides, the GI50 is 18.9 µM (inactive) with MDA-N; 17.8 µM (inactive) in the experiment on COLO 205; 25.5 µM (inactive) with HL-60; 13.7 µM (inactive) with HOP-92; 16.8 µM (inactive) with SNB-19; 18.2 µM (inactive) with MDA-MB-435. Also, the GI50 in the experiment with KM12 was 17.8 µM (inactive).
For `NC(=S)N/N=C1\NC(=O)/C(=C/c2ccc3c(c2)OCO3)S1`, the GI50 is 21.6 µM (inactive) in the experiment on EKVX; 22.6 µM (inactive) in the experiment with U-251; 30.6 µM (inactive) in the experiment with A549; 28.2 µM (inactive) with DU-145; 32.1 µM (inactive) with ACHN; 33.7 µM (inactive) in the experiment on HCC 2998. For the same compound, the GI50 with TK-10 is 40.8 µM (inactive); in the experiment on SNB-75, 14.3 µM (inactive); in the experiment on HOP-62, 20.9 µM (inactive); with SW-620, 31.8 µM (inactive); with T47D, 19.3 µM (inactive); in the experiment on OVCAR-5 it was 24.2 µM (inactive). Besides, the GI50 in the experiment on MDA-N was 27.5 µM (inactive); with COLO 205, 26.3 µM (inactive); in the experiment on HL-60 it was 20.6 µM (inactive); with HOP-92, 21.5 µM (inactive); in the experiment with SNB-19, 18 µM (inactive); in the experiment with MDA-MB-435, 27.1 µM (inactive). Also, the GI50 with KM12 is 20.9 µM (inactive).
`O=C1OC(c2ccccc2)=N/C1=C\c1ccc(F)cc1`: the GI50 was > 100 µM (inactive) in the experiment on EKVX; 89.7 µM (inactive) with U-251; > 100 µM (inactive) with A549; > 100 µM (inactive) in the experiment with DU-145; > 100 µM (inactive) in the experiment on ACHN; > 100 µM (inactive) in the experiment on HCC 2998. Besides, the GI50 in the experiment with TK-10 was > 100 µM (inactive); with SNB-75 it was > 100 µM (inactive); in the experiment with HOP-62, 42.4 µM (inactive); in the experiment on SW-620, > 100 µM (inactive); with T47D, > 100 µM (inactive); in the experiment with OVCAR-5, > 100 µM (inactive). The GI50 in the experiment on MDA-N, in the experiment on COLO 205, with HL-60, with HOP-92, in the experiment with SNB-19 and in the experiment on MDA-MB-435 was > 100 µM (inactive) in each case. Besides, the GI50 in the experiment with KM12 is > 100 µM (inactive).
As to `CC(=O)N1CC(C)(C)c2c(C)c(O)c(C)c(C)c21`, the GI50 in the experiment with EKVX, in the experiment on U-251, in the experiment with A549, in the experiment on DU-145, in the experiment with ACHN and with HCC 2998 was > 100 µM (inactive) each time. The GI50 with TK-10 was > 100 µM (inactive); with SNB-75 it was 54.5 µM (inactive); with HOP-62 it was > 100 µM (inactive); in the experiment on SW-620, > 100 µM (inactive); in the experiment on T47D, > 100 µM (inactive); in the experiment on OVCAR-5, > 100 µM (inactive). In addition, the GI50 with MDA-N, in the experiment with COLO 205, with HL-60, in the experiment on HOP-92, in the experiment on SNB-19 and in the experiment on MDA-MB-435 was > 100 µM (inactive) throughout. The GI50 in the experiment on KM12 is > 100 µM (inactive).
For the compound `Nc1nc(N)c2c(n1)NC(c1ccccc1)CC(/C=C/c1ccc(Cl)cc1)=N2` (stereo not drawn), the GI50 was 4.32 µM (inactive) in the experiment with EKVX; 5.87 µM (inactive) in the experiment on U-251; 12.2 µM (inactive) in the experiment with A549; 13.5 µM (inactive) in the experiment on Malme-3M; 9.23 µM (inactive) with DU-145; 10.8 µM (inactive) in the experiment on ACHN. Besides, the GI50 is 2.56 µM (inactive) with TK-10; 18.5 µM (inactive) in the experiment on SNB-75; 14.8 µM (inactive) in the experiment on HOP-62; 10.4 µM (inactive) in the experiment on SW-620; 5.83 µM (inactive) in the experiment with T47D; 17 µM (inactive) in the experiment on OVCAR-5. Further, the GI50 in the experiment with MDA-N was 5.55 µM (inactive); with COLO 205, 2.7 µM (inactive); in the experiment with HL-60, 10.2 µM (inactive); with HOP-92, 3.94 µM (inactive); in the experiment on SNB-19, 12.8 µM (inactive); in the experiment on MDA-MB-435 it was 3.59 µM (inactive). In addition, the GI50 in the experiment on KM12 is 3.52 µM (inactive).
For the compound `CC(CO)CCNc1ncnc2c1ncn2CCC(=O)O` (stereo not drawn), the GI50 in the experiment with EKVX, with A549, in the experiment with Malme-3M, with DU-145, in the experiment on ACHN and in the experiment with TK-10 was > 100 µM (inactive) throughout. For the same compound, the GI50 in the experiment on SNB-75, in the experiment with HOP-62, with SW-620, in the experiment with T47D, in the experiment on OVCAR-5 and in the experiment on MDA-N was > 100 µM (inactive) in each case. Also, the GI50 in the experiment on COLO 205, with HL-60, with HOP-92, in the experiment with SNB-19, in the experiment on MDA-MB-435 and in the experiment with KM12 was > 100 µM (inactive) throughout.
With `COc1cc2c[n+](C)c3c(c2cc1OC)Cc1cc2c(cc1-3)OCO2`, the GI50 in the experiment with EKVX, with U-251, in the experiment with A549, with Malme-3M, in the experiment on DU-145 and with TK-10 was > 100 µM (inactive) in each case. Moreover, the GI50 in the experiment on SNB-75, with HOP-62, with SW-620, in the experiment on T47D, in the experiment on OVCAR-5 and in the experiment on MDA-N was > 100 µM (inactive) throughout. Besides, the GI50 in the experiment on COLO 205, in the experiment with HL-60, with HOP-92, with SNB-19, with MDA-MB-435 and with KM12 was > 100 µM (inactive) each time.
`COC1=CC(=O)c2c(c(-c3nc(C)cs3)cn2C)C1=O`: the GI50 in the experiment with EKVX was 8.65 µM (inactive); with U-251, 4.67 µM (inactive); in the experiment on A549, 3.32 µM (inactive); in the experiment with DU-145, 3.76 µM (inactive); with ACHN it was 4.73 µM (inactive); in the experiment on HCC 2998, 4.28 µM (inactive). Further, the GI50 was 10.8 µM (inactive) with TK-10; 1.75 µM (inactive) in the experiment on SNB-75; 3.05 µM (inactive) in the experiment on HOP-62; 3.24 µM (inactive) in the experiment on SW-620; 20.1 µM (inactive) in the experiment on T47D; 6.76 µM (inactive) in the experiment with OVCAR-5. Besides, the GI50 with MDA-N was 0.931 µM (active); with COLO 205, 12.4 µM (inactive); in the experiment with HL-60, 1.46 µM (inactive); in the experiment with HOP-92, 14.9 µM (inactive); in the experiment with SNB-19 it was 4.23 µM (inactive); in the experiment on MDA-MB-435, 0.409 µM (active). Besides, the GI50 in the experiment on KM12 is 3.95 µM (inactive).
